Data from patent US10968222B2, “2-azabicyclo hexane JAK inhibitor compound” (THERAVANCE BIOPHARMA R&D IP, LLC, priority 2018, dated 2021).

Tested on: IL-6 stimulated CCL2 (MCP-1) production in human PBMCs
Test: Inhibition of IL-6 stimulated CCL2 (MCP-1) in human PBMCs
Format: cell-based
Details: PBMC, 48 h stimulation, ELISA, read-out: pIC50, inhibition of IL-6 stimulated CCL2 (MCP-1) (converted)
Experimental: The potency of the test compound for inhibition of interleukin-6 (IL-6) stimulated CCL2 (MCP-1) production was measured in human peripheral blood mononuclear cells (PBMCs) isolated from human whole blood (Stanford Blood Center). Because IL-6 signals through JAK, this assay provides a distal measure of JAK cellular potency.
(1) The protocol of Assay 4 paragraph (1) was followed up to the incubation with test compounds. In the present assay, after test compounds were added to wells and incubated, IL-6 (R&D Systems; final concentration 10 ng/ml) in pre-warmed assay media (50 μL) was added.
(2) After cytokine stimulation for 48 h, cells were centrifuged at 500 g for 5 min and supernatants were removed and frozen at −80° C. To determine the inhibitory potency of the test compound in response to IL-6, supernatant CCL2 (MCP-1) concentrations were measured via ELISA (R&D Systems). IC50 values were determined from analysis of the inhibition curves of concentration of CCL2/MCP-1 vs compound concentration. Data are expressed as pIC50 (negative decadic logarithm IC50) values.

CCc1cc(O)c(F)cc1-c1cc(F)c2c(-c3nc4c([nH]3)CCN(C(=O)[C@]35C[C@H]3CCN5)C4)n[nH]c2c1 [Compound 1, (1S,5R)-2-azabicyclo[3.1.0]hexan-1-yl(2-(6-(2-ethyl-5-fluoro-4-hydroxyphenyl)-4-fluoro-1H-indazol-3-yl)-6,7-dihydro-3H-imidazo[4,5-c]pyridin-5(4H)-yl)methanone]
IC50: 316 nM
